Values quoted from earlier work in patent US20150150789A1, “ANTIMICROBIAL COMPOSITIONS AND METHODS FOR PREVENTING INFECTION IN SURGICAL INCISION SITES” (TYRX, Inc., priority 2013, published 2015).

Details: for solubility in organic solvents: alcohols, ketones, ethers, aldehydes, acetonitrile, acetic acid, methylene chloride, chloroform (novobiocin sodium: alcohol)

SMILES	solubility in organic solvents	solubility in water	solubility in acidic aqueous solutions (acidic aqueous solutions)
CC[C@H]1OC(=O)[C@H](C)[C@@H](O[C@H]2C[C@@](C)(OC)[C@@H](O)[C@H](C)O2)[C@H](C)[C@@H](O[C@@H]2O[C@H](C)C[C@H](N(C)C)[C@H]2O)[C@](C)(O)C[C@@H](C)C(=O)[C@H](C)[C@@H](O)[C@]1(C)O [Erythromycin]	soluble	slightly soluble	–
Oc1c(Cl)cc(Cl)c(Cl)c1Cc1c(O)c(Cl)cc(Cl)c1Cl [Hexachlorophene]	soluble	soluble	–
CCOc1ccc2ccccc2c1C(=O)N[C@@H]1C(=O)N2[C@@H]1SC(C)(C)[C@@H]2C(=O)O [Nafcillin]	readily soluble	readily soluble	–
CO[C@@H]1[C@@H](OC(N)=O)[C@@H](O)[C@H](Oc2ccc3c(O)c(NC(=O)c4ccc(O)c(CC=C(C)C)c4)c(=O)oc3c2C)OC1(C)C [Novobiocin sodium]	freely soluble	freely soluble	–
CO[C@H]1/C=C/O[C@@]2(C)Oc3c(C)c(O)c4c(O)c(c(/C=N/N5CCN(C)CC5)c(O)c4c3C2=O)NC(=O)/C(C)=C\C=C\[C@H](C)[C@H](O)[C@@H](C)[C@@H](O)[C@@H](C)[C@H](OC(C)=O)[C@@H]1C [Rifampin, rifampin]	freely soluble	very slightly soluble	freely soluble
